Measured values as given in patent US6657060B2, “Pyrimidine derivatives” (Hoffman-La Roche Inc., priority 2000, dated 2003).

Target: T1, recombinant mouse NPY5-receptor (mNPY5) (Mus musculus, UniProt O70342)
T1 construct: The full-length cDNA encoding the mouse NPY5 (mNPY5) receptor was amplified from mouse brain cDNA; expressed in transfected cells; membranes
T1 sequence (O70342 1-466): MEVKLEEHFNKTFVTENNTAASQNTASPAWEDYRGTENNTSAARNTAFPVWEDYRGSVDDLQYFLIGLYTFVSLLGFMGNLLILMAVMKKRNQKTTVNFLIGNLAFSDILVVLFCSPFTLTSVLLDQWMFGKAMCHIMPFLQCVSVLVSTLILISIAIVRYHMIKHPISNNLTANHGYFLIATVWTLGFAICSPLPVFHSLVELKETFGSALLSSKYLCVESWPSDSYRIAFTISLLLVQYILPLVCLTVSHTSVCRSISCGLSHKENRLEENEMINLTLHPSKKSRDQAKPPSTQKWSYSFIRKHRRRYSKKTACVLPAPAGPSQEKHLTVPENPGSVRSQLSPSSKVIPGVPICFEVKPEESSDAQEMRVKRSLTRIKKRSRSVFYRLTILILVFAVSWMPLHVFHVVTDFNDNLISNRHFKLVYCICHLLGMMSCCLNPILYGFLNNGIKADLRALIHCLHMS
Test: Radioligand competition binding
Details: membranes of HEK293 cells expressing mNPY5; 100 pM [125I]labelled peptide YY (PYY); 1 h at 22° C.
Description: The full-length cDNA encoding the mouse NPY5 (mNPY5) receptor was amplified from mouse brain cDNA using specific primers, designed based on the published sequence, and Pfu DNA-Polymerase (Stratagene). The amplification product was subcloned into the mammalian expression vector pcDNA3 using Eco RI and XhoI restriction sites. Positive clones were sequenced and one clone, encoding the published sequence was selected for generation of stable cell clones.
Human embryonic kidney 293 (HEK293) cells were transfected with 10 μg mNPY5 DNA using the lipofectamine reagent (Gibco BRL) according to the manufacturer's instruction. Two days after transfection, geneticin selection (1 mg/ml) was initiated and several stable clones were isolated. One clone was further used for pharmacological characterization.
Human embryonic kidney 293 cells (HEK293), expressing recombinant mouse NPY5-receptor (mNPY5) were broken by three freeze/thawing cycles in hypotonic Tris buffer (5 mM, pH 7.4, 1 mM MgCl2), homogenized and centrifuged at 72,000×g for 15 min. The pellet was washed twice with 75 mM Tris buffer, pH 7.4, containing 25 mM MgCl2 and 250 mM sucrose, 0.1 mM phenylmethylsulfonylfluoride and 0.1 mM 1,10-pheneanthrolin, resuspended in the same buffer and stored in aliquots at −80° C. Protein was determined according to the method of Lowry using bovine serum albumine (BSA) as a standard. […]

| SMILES | IC50 |
| --- | --- |
| Cc1cc(N2CCCC2)nc(/C=C/c2cccc(C#N)c2)n1 [Compound 20, (E)-3-[2-(4-methyl-6-pyrrolidin-1-yl-pyrimidin-2-yl)-vinyl]-benzonitrile] | 18 nM |
| Cc1cc(N2CCCC2)nc(/C=C/c2ccc(F)cc2F)n1 [Compound 43, (E)-2-[2-(2,4-difluoro-phenyl)-vinyl]-4-methyl-6-pyrrolidin-1-yl-pyrimidine] | 30 nM |
